Test results from article doi:10.1101/2021.08.31.458471v1 (biorxiv, 2021).

Tests used:
McpB signaling domain = McpB signaling domain (Bacillus subtilis, UniProt P39215); details: 20 µM protein, 2 mM benzene, PBS in D2O pH 7.4, 298 K
[1] = target: McpA signaling domain (McpAc) (Bacillus subtilis, UniProt P39214); assay: biochemical
Sequence of McpA signaling domain (McpAc) (P39214 359-661): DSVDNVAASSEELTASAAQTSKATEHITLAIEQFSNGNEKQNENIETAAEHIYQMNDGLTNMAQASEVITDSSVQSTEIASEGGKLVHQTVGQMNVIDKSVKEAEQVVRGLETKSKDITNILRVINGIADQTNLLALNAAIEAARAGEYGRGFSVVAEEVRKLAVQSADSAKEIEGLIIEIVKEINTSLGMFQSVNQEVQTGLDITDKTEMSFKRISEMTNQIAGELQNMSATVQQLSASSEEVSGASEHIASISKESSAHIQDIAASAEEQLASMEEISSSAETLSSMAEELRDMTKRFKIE

Sequence of McpB signaling domain (P39215 359-662): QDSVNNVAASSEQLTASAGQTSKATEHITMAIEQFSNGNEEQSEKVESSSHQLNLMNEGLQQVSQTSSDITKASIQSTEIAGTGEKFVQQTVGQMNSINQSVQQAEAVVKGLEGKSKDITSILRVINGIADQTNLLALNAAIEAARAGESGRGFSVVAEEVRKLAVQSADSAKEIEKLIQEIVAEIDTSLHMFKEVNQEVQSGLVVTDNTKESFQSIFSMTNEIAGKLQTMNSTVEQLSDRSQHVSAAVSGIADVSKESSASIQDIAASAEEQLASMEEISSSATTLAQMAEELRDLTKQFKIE

STD-AF (McpB signaling domain) [%] | Structure (SMILES) | Kd [1] [mM]
16.4 | c1ccccc1 [benzene] | 
 | Oc1ccccc1 [phenol] | 4.8
